Data set [1] in a line: Circular dichroism spectroscopy. In kind it is physicochemical. Particulars: 1 mg/ml in phosphate buffered saline. As to the method: The conformational properties of the polypeptides were investigated to elucidate any secondary structure that might be necessary for polypeptide immunoreaction with human anti-EBNA antibodies. The polypeptides were dissolved at a concentration of 1 mg/ml in phosphate-buffered saline (PBS). Spectra were taken using 1 ml samples in a Cary 61 spectropolarimeter (Cary Instruments, Applied Physics Corp., Monrovia, Calif.) interfaced and automated with a Digital Equipment Corporation 11/02 computer (Digital Equipment Corporation, Maynard, Mass.).

For the next data set, the system named is anti-EBNA antibodies. In words: ELISA with polypeptide as solid phase antigen, anti-polypeptide activity of sera (OD405). In kind it is binding, human. Particulars: for Number of anti-EBNA positive sera positive against (bound to) polypeptide: 91 ACIF anti-EBNA positive sera, 1:20 dilution; for Titer of PSS patients versus normals: Progressive Systemic Schlerosis patients; for Reaction of VCA+ sera with polypeptide: clinically normal VCA+ individuals, two dilutions; for Reaction of VCA- sera with polypeptide: panel of 19 VCA- sera; for OD405 × 10^3 obtained with Patient Antibodies to peptide: serum 1:20.

The subject of data set [2] is rabbit anti-polypeptide antibody to polypeptide P62. The data set is described as follows: Competition ELISA with rabbit anti-polypeptide P62 antibody on solid phase P62. In kind it is binding. Particulars: antibody first incubated with competing polypeptide. How it is done: Anti-peptide antibody binding and inhibition studies were carried out by an enzyme-linked immunosorbent assay (ELISA) as described below.
Contact between the wells and antigen-containing solution was maintained for a predetermined time, typically 15 minutes, and at 20 degrees C., to form an antigen-coated solid phase. The solid and liquid phases were separated and the wells were washed three times with BBS.
Rabbit and human sera (body sample aliquots) were assayed for anti-polypeptide activity by adding 100 microliters of a serum diluted 1:20 in BBS per well to form a solid/liquid phase composition. Contact between the diluted sera and the antigen-coated solid phase was maintained for a predetermined time such as 1 hour, and at 20 degrees C., for an immunoreactant to form. The solid and liquid phases were separated, and the solid phase; i.e., antigen-coated, immunoreactant-containing wells, was then washed three times with BBS.

Residues, ends and D or L forms follow the SMILES beside them.

Protocol for anti-EBNA antibodies: Briefly, microtiter wells (Costar, #3590, Cambridge, MA) were typically coated with individual polypeptides as antigens by adding 100 microliters (ul) of BBS [10 millimoler (mM) sodium borate (pH 8.3), 150 mM NaCl] containing polypeptide at a concentration of 10 micrograms per milliliter (ug/ml). Contact between the wells and antigen-containing solution was maintained for a predetermined time, typically 15 minutes, and at 20 degrees C., to form an antigen-coated solid phase. The solid and liquid phases were separated and the wells were washed three times with BBS.
Non-specific binding sites were blocked by admixing 200 microliters of 1% bovine serum albumin (BSA) in each well to form another solid/liquid phase admixture, and maintaining that solid/liquid phase admixture for 30 minutes, at 20 degrees C. The phases were separated and excess, unbound BSA was removed by washing three times with BBS.
The antibodies in human sera that immunoreacted with an adsored polypeptide were detected using an indicating means comprising alkaline phosphatase-conjugated goat anti-human Ig antibody (Tago, Burlington, Calif.). The antibodies in rabbit sera that immunoreacted with an adsorbed polypeptide were detected using an indicating means comprising alkaline phosphatase-conjugated goat anti-rabbit Ig antibody (Kirkegard & Perry Laboratories, Inc., Gaithersburg, MD). In either instance, 100 microliters of the indicating antibody diluted 1:300 in BBS were added per well to form a further solid/liquid phase composition. This solid-liquid phase composition was maintained for a predetermined time, one hour, for the formation of a reaction product between the human antibodies bound to the solid phase and the indicating means, and at 20 degrees C. The phases were separated, and the solid phase was washed 3 times with BBS.
Alkaline phosphatase-conjugated antibody bound to polypeptide specific antibody was detected by spectrophotometrically measuring the enzymatic hydrolysis of p-nitrophenyl phosphate to p-nitrophenol. Briefly, 100 microliters of p-nitrophenyl phosphate [1 milligram per milliliter in 2 mM MgCl 2, (pH 9.8), 50 mM sodium carbonate] were added to each well. The enzymatic reaction was allowed to proceed 1 hour and then the optical density at 405 nm was determined in a [sequence] spectrophotometer available from Flow Laboratories, Inglewood, Calif.

`C[C@H](NC(=O)CN)C(=O)NCC(=O)NCC(=O)N[C@@H](C)C(=O)NCC(=O)N[C@@H](C)C(=O)NCC(=O)NCC(=O)NCC(=O)N[C@@H](C)C(=O)NCC(=O)NCC(=O)N[C@@H](C)C(=O)NCC(=O)NCC(=O)O` [Polypeptide F15, H--Gly--Ala--Gly--Gly--Ala--Gly--Ala--Gly--Gly--Gly--Ala--Gly--Gly--Ala--Gly--Gly--OH] (H-GAGGAGAGGGAGGAGG-OH): the “Conformation by circular dichroism spectrum” value (“Conformation” below) in data set [1] is given as “very similar spectra”. For the same compound, in the data set on anti-EBNA antibodies, the “Number of anti-EBNA positive sera positive against (bound to) polypeptide” value (from here on “Number … (bound to) polypeptide”) is 91, the “Titer of PSS patients versus normals” value was “relatively higher average titer”, the “Reaction of VCA+ sera with polypeptide” value was “all of the VCA^+ individuals were positive” and the “Reaction of VCA- sera with polypeptide” value is on record as “None of the VCA^- sera were found to react positively”.

Take `C[C@H](NC(=O)CNC(=O)CNC(=O)[C@H](C)NC(=O)CNC(=O)[C@H](C)NC(=O)CNC(=O)[C@H](C)NC(=O)CNC(=O)[C@@H](NC(=O)CNC(=O)CNC(=O)[C@H](Cc1c[nH]cn1)NC(=O)[C@@H](NC(=O)CNC(=O)[C@@H](N)CCCCN)[C@@H](C)O)[C@@H](C)O)C(=O)NCC(=O)N[C@@H](C)C(=O)NCC(=O)O` [Polypeptide P27, H--Lys--Gly--Thr--His--Gly--Gly--Thr--Gly--Ala--Gly--Ala--Gly--Ala--Gly--Gly--Ala--Gly--Ala--Gly--OH] (H-KGTHGGTGAGAGAGGAGAG-OH): the “Conformation” value in data set [1] was “very similar spectra”. The “Number … (bound to) polypeptide” value in the data set on anti-EBNA antibodies is on record as 91. Further, the “Titer of PSS patients versus normals” value with anti-EBNA antibodies was “relatively higher average titer”. Moreover, the “Reaction of VCA+ sera with polypeptide” value with anti-EBNA antibodies is “all of the VCA^+ individuals were positive”. For the same compound, the “Reaction of VCA- sera with polypeptide” value with anti-EBNA antibodies is reported as “None of the VCA^- sera were found to react positively”. Also, the “OD405 × 10^3 obtained with Patient Antibodies to peptide” value (“OD405 × 10^3 obtained” for short) was found to be 107 OD405 × 10^3 in the data set on anti-EBNA antibodies (MV post-mononucleosis); 15 OD405 × 10^3 with anti-EBNA antibodies (MV pre-mononucleosis); 33 OD405 × 10^3 in the data set on anti-EBNA antibodies (SB post-mononucleosis); 11 OD405 × 10^3 with anti-EBNA antibodies (SB pre-mononucleosis); 155 OD405 × 10^3 in the data set with anti-EBNA antibodies (VCA+ Normal 1); 516 OD405 × 10^3 in the data set on anti-EBNA antibodies (VCA+ Normal 2). The “OD405 × 10^3 obtained” value in the data set on anti-EBNA antibodies (VCA- Normals (n = 27), average ± one standard deviation) came out at 67 ± 23 OD405 × 10^3. Moreover, the “Inhibition of binding of anti-polypeptide P62 to polypeptide P62 in the solid phase” value in data set [2] is 36%.

As to `C[C@H](NC(=O)CNC(=O)CNC(=O)[C@H](C)NC(=O)CNC(=O)[C@H](C)NC(=O)CNC(=O)CNC(=O)[C@H](C)NC(=O)CNC(=O)[C@H](C)NC(=O)CNC(=O)CNC(=O)[C@H](C)NC(=O)CNC(=O)[C@H](C)NC(=O)CNC(=O)CN)C(=O)NCC(=O)N[C@@H](C)C(=O)NCC(=O)O` [Polypeptide F16, H--Gly--Gly--Ala--Gly--Ala--Gly--Gly--Ala--Gly--Ala--Gly--Gly--Ala--Gly--Ala--Gly--Gly--Ala--Gly--Ala--Gly--OH] (H-GGAGAGGAGAGGAGAGGAGAG-OH), in the data set with anti-EBNA antibodies, the “Number … (bound to) polypeptide” value is recorded as 91, the “Titer of PSS patients versus normals” value is “relatively higher average titer”, the “Reaction of VCA+ sera with polypeptide” value is “all of the VCA^+ individuals were positive” and the “Reaction of VCA- sera with polypeptide” value was “None of the VCA^- sera were found to react positively”.

Consider `CSCC[C@H](NC(=O)[C@@H]1CCCN1C(=O)[C@H](CCCNC(=N)N)NC(=O)[C@H](CCCCN)NC(=O)[C@H](CCC(=O)O)NC(=O)CNC(=O)[C@H](CCCNC(=N)N)NC(=O)CNC(=O)[C@H](CCCNC(=N)N)NC(=O)CNC(=O)[C@H](CCCNC(=N)N)NC(=O)CNC(=O)[C@H](CCCNC(=N)N)NC(=O)[C@H](C)NC(=O)[C@@H](N)CCCNC(=N)N)C(=O)O` [Polypeptide P89, H--Arg--Ala--Arg--Gly--Arg--Gly--Arg--Gly--Arg--Gly--Glu--Lys--Arg--Pro--Met--OH] (H-RARGRGRGRGEKRPM-OH), for which the “OD405 × 10^3 obtained” value in the data set on anti-EBNA antibodies (MV post-mononucleosis) is recorded as 25 OD405 × 10^3; in the data set with anti-EBNA antibodies (MV pre-mononucleosis), 29 OD405 × 10^3; in the data set on anti-EBNA antibodies (SB post-mononucleosis), 23 OD405 × 10^3; in the data set with anti-EBNA antibodies (SB pre-mononucleosis) it was 9 OD405 × 10^3; in the data set on anti-EBNA antibodies (VCA+ Normal 1), 23 OD405 × 10^3; with anti-EBNA antibodies (VCA+ Normal 2) it was 16 OD405 × 10^3.

With `C[C@H](NC(=O)CNC(=O)[C@@H]1CCCN1)C(=O)N1CCC[C@H]1C(=O)NCC(=O)NCC(=O)N[C@@H](CO)C(=O)NCC(=O)N[C@@H](CO)C(=O)NCC(=O)N1CCC[C@H]1C(=O)O` [Polypeptide F13, H--Pro--Gly--Ala--Pro--Gly--Gly--Ser--Gly--Ser--Gly--Pro--OH] (H-PGAPGGSGSGP-OH), the “Conformation” value in data set [1] is on record as “random conformation”. In the data set with anti-EBNA antibodies, the “Reaction of VCA+ sera with polypeptide” value is “all of the VCA^+ individuals were positive” and the “Reaction of VCA- sera with polypeptide” value is recorded as “None of the VCA^- sera were found to react positively”.

With `C[C@H](NC(=O)CNC(=O)CNC(=O)CNC(=O)[C@H](C)NC(=O)CNC(=O)[C@H](C)NC(=O)CNC(=O)CNC(=O)[C@H](C)NC(=O)CNC(=O)CNC(=O)[C@H](C)NC(=O)CNC(=O)CN)C(=O)NCC(=O)O` [Polypeptide F14, H--Gly--Gly--Ala--Gly--Gly--Ala--Gly--Gly--Ala--Gly--Ala--Gly--Gly--Gly--Ala--Gly--OH] (H-GGAGGAGGAGAGGGAG-OH), in data set [1], the “Conformation” value is “very similar spectra”. In addition, in the data set on anti-EBNA antibodies, the “Number … (bound to) polypeptide” value was determined as 91, the “Titer of PSS patients versus normals” value is recorded as “relatively higher average titer”, the “Reaction of VCA+ sera with polypeptide” value is “all of the VCA^+ individuals were positive” and the “Reaction of VCA- sera with polypeptide” value is “None of the VCA^- sera were found to react positively”.

As for `CC[C@H](C)[C@H](N)C(=O)N[C@@H](CCSC)C(=O)N[C@@H](CO)C(=O)N[C@@H](CC(=O)O)C(=O)N[C@@H](CCC(=O)O)C(=O)NCC(=O)N1CCC[C@H]1C(=O)NCC(=O)N[C@H](C(=O)NCC(=O)N[C@@H](CC(N)=O)C(=O)NCC(=O)N[C@@H](CC(C)C)C(=O)NCC(=O)N[C@@H](CCC(=O)O)C(=O)O)[C@@H](C)O` [Polypeptide F12, H--Ile--Met--Ser--Asp--Glu--Gly--Pro--Gly--Thr--Gly--Asn--Gly--Leu--Gly--Glu--OH] (H-IMSDEGPGTGNGLGE-OH), the “Conformation” value in data set [1] is listed as “partial assumption of such conformation”. For the same compound, in the data set with anti-EBNA antibodies, the “Reaction of VCA+ sera with polypeptide” value was “all of the VCA^+ individuals were positive” and the “Reaction of VCA- sera with polypeptide” value was “None of the VCA^- sera were found to react positively”.
